Bounds are passed on as bounds.

The target of the assay is I-Ak (Mus musculus, UniProt P01910+P06343). As to the kind of experiment: Percent of I-Ak occupied by each eluted self-peptide. To be noted: I-Ak from thymus (cortical plus medullary epithelium) of C3H/HeJ mice; Table 1.
I-Ak, sequence (P01910 whole entry, looked up): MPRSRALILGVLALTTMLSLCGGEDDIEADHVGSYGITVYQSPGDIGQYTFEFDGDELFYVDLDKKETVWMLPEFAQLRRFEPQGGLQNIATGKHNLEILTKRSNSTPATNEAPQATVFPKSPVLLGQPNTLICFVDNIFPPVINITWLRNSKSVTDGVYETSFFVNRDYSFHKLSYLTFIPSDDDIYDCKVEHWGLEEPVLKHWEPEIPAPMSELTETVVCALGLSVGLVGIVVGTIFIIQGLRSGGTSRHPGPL
I-Ak, sequence (P06343 whole entry, looked up): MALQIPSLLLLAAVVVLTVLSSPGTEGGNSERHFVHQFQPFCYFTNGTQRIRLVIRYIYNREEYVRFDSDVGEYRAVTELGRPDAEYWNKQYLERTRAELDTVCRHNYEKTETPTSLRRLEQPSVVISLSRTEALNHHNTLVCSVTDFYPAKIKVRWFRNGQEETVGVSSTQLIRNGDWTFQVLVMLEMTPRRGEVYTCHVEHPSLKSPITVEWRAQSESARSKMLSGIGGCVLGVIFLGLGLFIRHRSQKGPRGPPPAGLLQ

n serHFV_HQFQPFcyF [A~ 3-]: the “Percent of MHC occupied in Thymus” value is under 0.1%.
For r sYLD_AwVcEQLAT [Fce Receptor 11 298-], the “Percent of MHC occupied in Thymus” value is recorded as under 0.1%.
Next, a vvKKGTD_FQLNQLE [Transferrin 100-]: 0.3%.
With xQLGA_QNEMLxPV the figure was under 0.1%.
With xP_IDDGGIEA the figure was under 0.1%; with xPL_ALQFAELPVNKG, 0.2%; with e yiLYNKGIMGEdSYPY [Cathepsin H 77-], 0.2%.
On to k kGTD_FQLNQLEGKKG [Transferrin 103-], for which the “Percent of MHC occupied in Thymus” value is recorded as 0.2%.

The values above are taken from paper PMC2191300 (The Journal of Experimental Medicine, 1993).
